The numbers were not newly measured in patent US20250262254A1, “THERAPEUTIC COMPOSITIONS AND METHODS OF USING SEROTONIN MODULATING MICROBIOME-BASED INTERVENTIONS TO TREAT SEROTONIN-RELATED DISEASES OR DISORDERS” (HOLOBIOME, INC, priority 2019, published 2025), which cites them from elsewhere.

The data set relates to mouse model. As to conditions: microbiota-derived tryptamine.

For `NCCc1c[nH]c2ccccc12` [tryptamine], the GI transit result is reported as “accelerate GI transit”.
